Patent US9963462B2 (priority 2015, dated 2018)

Key:
[1] = target: SNAP-hSPR (sepiapterin reductase, SPR) (Homo sapiens, UniProt P35270); assay: biochemical; assay type: binding; settings: terbium labelled SNAP-hSPR / SSZ labelled SNAP-EGFP; read-out: hTR-FRET IC50
[2] = test system: BH4 levels in SK-N-BE (2) cells; assay: SKN-N-BE (2) cellular assay, BH4 levels by LC-MS; assay type: cell-based; settings: Homo sapiens, SKNBE2, read-out: SK-N-BE(2) IC50, SK-N-BE (2) cells, BH4 levels by LC-MS

SNAP-hSPR (sepiapterin reductase, SPR), sequence (P35270 whole entry): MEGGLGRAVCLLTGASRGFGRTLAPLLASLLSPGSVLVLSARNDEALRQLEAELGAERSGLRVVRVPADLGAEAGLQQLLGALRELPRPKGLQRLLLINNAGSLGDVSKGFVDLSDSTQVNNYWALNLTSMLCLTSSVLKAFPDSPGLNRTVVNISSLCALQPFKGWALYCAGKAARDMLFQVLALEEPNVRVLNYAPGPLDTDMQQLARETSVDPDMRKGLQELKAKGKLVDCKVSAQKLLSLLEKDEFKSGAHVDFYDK

Structure (SMILES)	IC50 [1]	IC50 [2]
CC(C)(C#N)C1CCN(C(=O)c2cnn(-c3nn4cccc4c(=O)[nH]3)c2)CC1 [Q-0720]	1 nM	300 nM
Cc1c(C(=O)N2CCN(C)CC2)cnn1-c1nc2c(c(=O)[nH]1)CCC2 [Q-0722]	20 nM	3300 nM
Cc1c(C(=O)N2CCN(C(=O)OC(C)(C)C)CC2)cnn1-c1nc2c(c(=O)[nH]1)CCC2 [Q-0723]	3 nM	200 nM
Cc1c(C(=O)N2CCC(CC(F)(F)F)CC2)cnn1-c1nc2sccc2c(=O)[nH]1 [Q-0724]	2 nM	200 nM
CCC1(C#N)CCN(C(=O)c2cnn(-c3nc4c(c(=O)[nH]3)CCC4)c2)CC1 [Q-0725]	1 nM	100 nM
N#CC1(c2ccccc2)CCN(C(=O)c2cnn(-c3nc4c(c(=O)[nH]3)CCC4)c2)CC1 [Q-0726]	1 nM	74 nM
Cc1c(C(=O)N2CCC(C3CC3)CC2)cnn1-c1nn2cccc2c(=O)[nH]1 [Q-0727]	1 nM	81 nM
CN(C(=O)OC(C)(C)C)[C@@H]1CCN(C(=O)c2cnn(-c3nn4cccc4c(=O)[nH]3)c2)C1 [Q-0730]	1 nM	200 nM
Cc1c(C(=O)N2CCN(C)c3ccccc32)cnn1-c1nc2c(c(=O)[nH]1)CCC2 [Q-0731]	2 nM	53 nM
O=C(c1ccn(-c2nc3c(c(=O)[nH]2)CCC3)c1)N1CCC(C(F)(F)F)CC1 [Q-0732]	1 nM	100 nM
O=C(c1cnn(-c2nn3cccc3c(=O)[nH]2)c1)N1CCN(c2ccc(F)cc2F)CC1 [Q-0734]	4 nM	300 nM
O=C(c1cnn(-c2nc3c(c(=O)[nH]2)CCC3)c1)N1CCN(c2ccc(F)cc2F)CC1 [Q-0735]	3 nM	95 nM
Cc1c(C(=O)N2CC[C@@H](N(C)C(=O)OC(C)(C)C)C2)cnn1-c1nn2cccc2c(=O)[nH]1 [Q-0736]	2 nM	200 nM
O=C(c1ccn(-c2nn3cccc3c(=O)[nH]2)c1)N1CCC(C(F)(F)F)CC1 [Q-0738]	1 nM	100 nM
Cc1c(C(=O)N2C3CCC2CN(C(=O)OC(C)(C)C)C3)cnn1-c1nn2cccc2c(=O)[nH]1 [Q-0739]	2 nM	300 nM
O=C(c1cnn(-c2nn3cc(F)cc3c(=O)[nH]2)c1)N1CCC(CC(F)(F)F)CC1 [Q-0741]	4 nM	400 nM
O=C(c1cnn(-c2nc3c(c(=O)[nH]2)CCC3)c1)N1CCN2CCC[C@@H]2C1 [Q-0743]	4 nM	400 nM
O=C(c1cnn(-c2nc3c(c(=O)[nH]2)CCC3)c1)N1CCC(CC(F)(F)F)CC1 [Q-0744]	3 nM	100 nM
Cc1c(C(=O)N2C3CCC2CN(C(=O)OC(C)(C)C)C3)cnn1-c1nc2c(c(=O)[nH]1)CCC2 [Q-0745]	4 nM	200 nM
CCC1(C#N)CCN(C(=O)c2cnn(-c3nn4cc(F)cc4c(=O)[nH]3)c2)CC1 [Q-0746]	4 nM	600 nM
Cc1c(C(=O)N2CCC(CC(F)(F)F)CC2)cnn1-c1nn2cc(F)cc2c(=O)[nH]1 [Q-0747]	8 nM	800 nM
Cc1c(C(=O)N2CCC3(CN(C(=O)OC(C)(C)C)C3)C2)cnn1-c1nn2cccc2c(=O)[nH]1 [Q-0748]	4 nM	900 nM
Cc1c(C(=O)N2CC(c3ccc(F)c(F)c3)C2)cnn1-c1nc2c(c(=O)[nH]1)CCC2 [Q-0749]	3 nM	50 nM

Structure (SMILES)	IC50 [1]	IC50 [2]
O=C(c1cnn(-c2nc3sccc3c(=O)[nH]2)c1)N1CCC(C2CC2)CC1 [Q-0751]	3 nM	200 nM
O=C(c1cnn(-c2nc3sccc3c(=O)[nH]2)c1)N1CCC(CC(F)(F)F)CC1 [Q-0752]	4 nM	500 nM
O=C(c1cnn(-c2nc3sccc3c(=O)[nH]2)c1)N1CCC(C(F)(F)F)CC1 [Q-0753]	2 nM	200 nM
O=C(c1cnn(-c2nc3sccc3c(=O)[nH]2)c1)N1CCC(c2c[nH]c3ccccc23)CC1 [Q-0754]	9 nM	100 nM
O=C(c1cnn(-c2nc3sccc3c(=O)[nH]2)c1)N1CCN2CCC[C@@H]2C1 [Q-0755]	4 nM	500 nM
Cc1c(C(=O)N2CCN(C)CC2)cnn1-c1nn2cccc2c(=O)[nH]1 [Q-0756]	4 nM	800 nM
CC1CCN(C(=O)c2cnn(-c3nn4cccc4c(=O)[nH]3)c2C2CC2)CC1 [Q-0757]	2 nM	200 nM
O=C(c1cnn(-c2nn3c(F)ccc3c(=O)[nH]2)c1)N1CCC(CC(F)(F)F)CC1 [Q-0758]	2 nM	90 nM
Cc1c(C(=O)N2CCN(C)c3ccccc32)cnn1-c1nn2cccc2c(=O)[nH]1 [Q-0759]	1 nM	200 nM
Cc1c(C(=O)N2CC3(CCN(C(=O)OC(C)(C)C)C3)C2)cnn1-c1nn2cccc2c(=O)[nH]1 [Q-0762]	2 nM	200 nM
Cc1c(C(=O)N2CCC(C(F)(F)F)CC2)cnn1-c1nc2c(c(=O)[nH]1)CC2 [Q-0765]	5 nM	300 nM
Cc1c(C(=O)N2CC(c3ccc(F)c(F)c3)C2)cnn1-c1nn2cccc2c(=O)[nH]1 [Q-0771]	1 nM	200 nM
Cc1c(C(=O)N2C[C@@H]3CN(C(=O)OC(C)(C)C)[C@@H]3C2)cnn1-c1nn2cccc2c(=O)[nH]1 [Q-0773]	6 nM	1700 nM
O=C(O)c1cn(-c2nn3cccc3c(=O)[nH]2)nn1 [Q-0774]	200 nM	10000 nM
CCC1(C#N)CCN(C(=O)c2cn(-c3nn4cccc4c(=O)[nH]3)nn2)CC1 [Q-0775]	2 nM	1000 nM
Cc1c(C(=O)O)nnn1-c1nn2cccc2c(=O)[nH]1 [Q-0779]	20 nM	10000 nM
CCOC(=O)c1nnn(-c2nn3cccc3c(=O)[nH]2)c1C [Q-0780]	1 nM	200 nM
O=C(c1cn(-c2nn3cccc3c(=O)[nH]2)nn1)N1CCC(C(F)(F)F)CC1 [Q-0781]	1 nM	200 nM
O=C(c1cnn(-c2nn3cccc3c(=O)[nH]2)c1)N1CCC(OCC(F)(F)F)CC1 [Q-0783]	2 nM	300 nM
Cc1c(C(=O)N2CC3(CCCN3C(=O)OC(C)(C)C)C2)cnn1-c1nn2cccc2c(=O)[nH]1 [Q-0785]	1 nM	200 nM
Cc1c(C(=O)N2CC[C@@H]3CN(C(=O)OC(C)(C)C)[C@@H]3C2)cnn1-c1nn2cccc2c(=O)[nH]1 [Q-0788]	10 nM	3600 nM
Cc1c(C(=O)N2C[C@@H]3CCN(C(=O)OC(C)(C)C)C[C@@H]32)cnn1-c1nn2cccc2c(=O)[nH]1 [Q-0790]	7 nM	1400 nM
Cc1c(C(=O)N2CC3CC2C3)cnn1-c1nn2cccc2c(=O)[nH]1 [Q-0791]	2 nM	600 nM

Structure (SMILES)	IC50 [1]	IC50 [2]
Cc1c(C(=O)N2CCC3(CC2)COC3)cnn1-c1nn2cccc2c(=O)[nH]1 [Q-0793]	3 nM	1000 nM
Cc1c(C(=O)N2CCC3(CC2)OCCO3)cnn1-c1nn2cccc2c(=O)[nH]1 [Q-0795]	2 nM	500 nM
Cc1c(C(=O)N2CC3CC(F)(F)CC3C2)cnn1-c1nn2cccc2c(=O)[nH]1 (centres unmarked) [Q-0796]	1 nM	200 nM
Cc1c(C(=O)N2CCN(C(=O)OC(C)(C)C)CC23CCC3)cnn1-c1nn2cccc2c(=O)[nH]1 [Q-0798]	2 nM	300 nM
Cc1c(C(=O)N2CC3CC(C2)C3(F)F)cnn1-c1nn2cccc2c(=O)[nH]1 [Q-0799]	1 nM	300 nM
Cc1c(C(=O)N2CCN(c3ccccc3)CC2)cnn1-c1nn2cccc2c(=O)[nH]1 [Q-0802]	1 nM	67 nM
Cc1c(C(=O)N2CCC(O)(C(F)(F)F)CC2)cnn1-c1nn2cccc2c(=O)[nH]1 [Q-0803]	1 nM	200 nM
Cc1c(C(=O)N2CC3(C2)CC(O)(C(F)(F)F)C3)cnn1-c1nn2cccc2c(=O)[nH]1 [Q-0805]	4 nM	2300 nM
Cc1c(C(=O)N2CC3[C@@H](C2)CN3C(=O)OC(C)(C)C)cnn1-c1nn2cccc2c(=O)[nH]1 (some centres unmarked) [Q-0806]	3 nM	1200 nM
Cc1c(C(=O)N2CC3C(C2)C3(F)F)cnn1-c1nn2cccc2c(=O)[nH]1 (centres unmarked) [Q-0807]	2 nM	400 nM
Cc1c(C(=O)N2CCC3(CCCC3)C2)cnn1-c1nn2cccc2c(=O)[nH]1 [Q-0808]	1 nM	200 nM
Cc1c(C(=O)N2CC3CN(C(=O)OC(C)(C)C)CC3C2)cnn1-c1nn2cccc2c(=O)[nH]1 (centres unmarked) [Q-0809]	6 nM	900 nM
Cc1c(C(=O)N2CC(O)(C3CC3)C2)cnn1-c1nn2cccc2c(=O)[nH]1 [Q-0814]	2 nM	400 nM
Cc1c(C(=O)N2CC(N3CCC(F)(F)CC3)C2)cnn1-c1nn2cccc2c(=O)[nH]1 [Q-0818]	2 nM	900 nM
Cc1c(C(=O)N2CCCC3(CC3)C2)cnn1-c1nn2cccc2c(=O)[nH]1 [Q-0819]	1 nM	200 nM
Cc1c(C(=O)N2CCN(C(=O)OC(C)(C)C)C3(CCC3)C2)cnn1-c1nn2cccc2c(=O)[nH]1 [Q-0820]	1 nM	40 nM
Cc1c(C(=O)N2CCN(c3ccc(F)cc3)CC2)cnn1-c1nn2cccc2c(=O)[nH]1 [Q-0823]	1 nM	66 nM
Cc1c(C(=O)N2CC3CC(=O)CC3C2)cnn1-c1nn2cccc2c(=O)[nH]1 (centres unmarked) [Q-0824]	5 nM	1800 nM
CCC(C#N)C1CCN(C(=O)c2cnn(-c3nn4cccc4c(=O)[nH]3)c2C)CC1 (centres unmarked) [Q-0826]	1 nM	100 nM
Cc1c(C(=O)N2CCN(c3ccc(Cl)cc3)CC2)cnn1-c1nn2cccc2c(=O)[nH]1 [Q-0827]	2 nM	65 nM
Cc1c(C(=O)N2CCN(c3ccc(Cl)c(Cl)c3)CC2)cnn1-c1nn2cccc2c(=O)[nH]1 [Q-0828]	4 nM	50 nM
